Columns and labels:
[1] = system: intracellular levels of ATP; conditions: non-specific effects; cited from earlier work
WASP = biological target: T1, WASP (Homo sapiens, UniProt P42768); conditions: cited from earlier work
T1 sequence (P42768 1-502): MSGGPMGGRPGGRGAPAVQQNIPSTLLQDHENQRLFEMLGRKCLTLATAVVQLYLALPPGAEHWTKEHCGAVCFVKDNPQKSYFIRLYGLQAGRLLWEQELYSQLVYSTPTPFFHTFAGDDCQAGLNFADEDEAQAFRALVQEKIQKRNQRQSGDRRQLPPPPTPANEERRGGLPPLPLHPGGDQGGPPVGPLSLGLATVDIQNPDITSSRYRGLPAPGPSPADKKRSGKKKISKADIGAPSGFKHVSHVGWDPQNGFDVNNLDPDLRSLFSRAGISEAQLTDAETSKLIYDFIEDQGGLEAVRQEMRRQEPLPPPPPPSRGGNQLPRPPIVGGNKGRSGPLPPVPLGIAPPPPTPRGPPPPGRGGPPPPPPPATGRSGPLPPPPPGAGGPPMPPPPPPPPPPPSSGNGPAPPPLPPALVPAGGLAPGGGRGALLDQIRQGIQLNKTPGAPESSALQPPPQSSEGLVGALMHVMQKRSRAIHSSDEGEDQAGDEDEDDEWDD

N-WASP = N-WASP (Homo sapiens, UniProt O00401); conditions: Peterson et al., 2004; cited from earlier work
MTLn3 tumor = test: in vivo needle invasion assay; set-up: species or system mice; conditions: needle with EGF vs buffer, 4 hours (FIG. 6)
Experimental: FIG. 6A-6B. WASP is required for macrophage dependent carcinoma cell invasion in vivo. (A) Schematic illustration of in vivo invasion assay. (B) Quantification of the number of cells collected into the needle after 4 hours with EGF or without EGF (buffer) from wildtype, WASP+/− or WASP−/− mice bearing MTLn3 tumor. Cell counting was performed single blinded where the counter was not aware of the genotype of the mice. n=4 independent WT and 4 WASp−/− mice used) Error bars signify SEM. ** p<0.01 compared to buffer and EGF needle in WASP−/− mice.
The presence and absence of WASP in tumors was further characterized to determine the precise defect in the absence of WASP that led to reduced metastasis. […] Carcinoma cell invasiveness in the tumor was monitored and analyzed using a well established in vivo needle invasion assay that mimics the invasion of carcinoma cells into a blood vessel, according to Wyckoff et al. (Wyckoff, Segall et al. 2000). […] Additionally, a reduction was also observed in the motility of carcinoma cells in the tumors of WASP deficient mice as compared with control mice (FIG. 7).

MTLn3 = test: 3D collagen invasion assay of MTLn3 carcinoma cells (macrophage co-culture or BMM conditioned media); format: cell-based; conditions: KO CM with exogenously added 25 nM EGF (FIG. 2C)
Text: FIG. 1A-1D. WASP is required for macrophage-dependent breast carcinoma cell invasion. (A) Schematic illustration of the 3D invasion assay. (B) X-Z reconstruction of confocal images of 3D invasion assay using celltracker green labeled carcinoma cells (MTLn3) cultured on their own or co-cultured with celltracker red labeled primary bone marrow derived macrophages (BMM) isolated from either wild type (WT) or WASP knockout (WASP−/−) mice. Dotted line indicates the arbitrary threshold for measuring invasion at 20 μm (˜2 cell diameter). Quantification of cell tracker dye labeled (C) macrophage and (D) MTLn3 invasion. Fluorescence from cells was recorded at 5 μm step size. Collagen invasion is plotted as fraction of cells where fluorescence intensities above 20 μm are divided by total fluorescence from the entire stack (n=3 mice per genotype, age and sex matched). […]
FIG. 2A-2C. […] (A) Quantification of the MTLn3 invasion by MTLn3 cells alone, in response to wildtype BMM conditioned media (WT-CM) or conditioned media from WASP deficient mice (+KO CM) p<** 0.01 ***0.001 compared to wild-type macrophage conditioned media (WT CM). (B) Quantification of the MTLn3 invasion by MTLn3 cells alone, with wildtype BMM conditioned media (WT-CM) alone or with control IgG (Ctrl IgG) or with two different neutralizing anti-EGF antibodies generated in goat or rabbit (nEGF-G or nEGF-R). […]

Chain of N-WASP (O00401 whole entry, species assumed): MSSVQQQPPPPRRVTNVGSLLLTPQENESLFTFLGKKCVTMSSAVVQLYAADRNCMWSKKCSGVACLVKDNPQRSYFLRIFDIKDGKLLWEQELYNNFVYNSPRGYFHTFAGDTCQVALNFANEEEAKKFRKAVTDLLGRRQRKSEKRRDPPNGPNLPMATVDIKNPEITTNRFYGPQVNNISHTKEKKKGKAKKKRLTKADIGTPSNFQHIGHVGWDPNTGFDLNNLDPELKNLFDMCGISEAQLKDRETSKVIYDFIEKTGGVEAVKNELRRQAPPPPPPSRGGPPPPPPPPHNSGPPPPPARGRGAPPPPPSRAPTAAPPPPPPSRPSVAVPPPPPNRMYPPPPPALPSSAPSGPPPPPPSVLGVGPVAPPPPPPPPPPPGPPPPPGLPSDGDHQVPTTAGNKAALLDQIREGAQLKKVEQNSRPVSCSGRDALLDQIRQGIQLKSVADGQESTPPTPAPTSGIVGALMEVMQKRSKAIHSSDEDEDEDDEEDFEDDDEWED

| Molecule | intracellular levels of ATP [1] | inhibition of WASP (WASP) | inhibition of N-WASP (N-WASP) | number of carcinoma cells collected into needle (MTLn3 tumor; tumor bearing WASP-deficient mice) | number of carcinoma cells collected into needle (MTLn3 tumor; tumor bearing control mice) | MTLn3 invasion with WASP deficient BMM conditioned media (MTLn3) |
| --- | --- | --- | --- | --- | --- | --- |
| CN(C)C[C@H](O)Cn1c2ccc(Br)cc2c2cc(Br)ccc21 (racemic) [wiskostatin] | lowers the intracellular levels of ATP | also inhibits WASP | inhibitor of N-WASP |  |  |  |
| EGF: epidermal growth factor, carcinoma cell chemoattractant (NSDSECPLSHDGYCLHDGVCMYIEALDKYACNCVVGYIGERCQYRDLKWWELR; UniProt P01133 971-1023, looked up) |  |  |  | no difference in the number of cells collected | significantly enhanced the number of carcinoma cells collected into a needle | restored carcinoma cell invasion |

From patent US20120077734A1, “Methods and assays for treating conditions in which macrophages play a pathogenic role” (priority 2010, published 2012)
